Laboratory results from patent US12102594B2, “Infusion bag of Midazolam for intravenous use” (Sun Pharmaceutical Industries Limited, priority 2019, dated 2024).

Columns and labels:
[1] = cited from earlier work
[2] = Adsorption behaviour of Midazolam in different bags at variable fill volume (HPLC assay); type: physicochemical; details: 1 mg/mL, fill volumes 10, 20, 30, 40 ml
Description: Method: Adsorption behaviour of Midazolam in different bags (IC-S′, IC-S and IC-PHC) was evaluated at four variable fill volumes, i.e. 10 ml, 20 ml, 30 ml and 40 ml. The assay values of autoclaved samples of Midazolam formulation were evaluated using an HPLC based assay method. […] At lowest fill volume, surface area to volume ratio was high resulting higher adsorption of API on contact layer of infusion bags. As fill volume increases surface area to volume ratio decreases leads to lower adsorption and higher assay values. This confirmed the physical adsorption of Midazolam in IC-S infusion bags. […] This also ruled out the possibility of Midazolam adsorption in IC-PHC infusion bags.

[3] = Packaging material screening: Assay of Midazolam HCL Injection in autoclaved and unautoclaved infusion containers; type: physicochemical
Description: Manufacturing process: Bulk solution preparation: 80% of the batch size of water for injection (WFI) was collected at a temperature of 20° C. to 25° C. in stainless steel 316L manufacturing tank of suitable capacity. Nitrogen gas was purged to get dissolve oxygen content less than 1 mg/L (ppm), pressure of nitrogen gas and time of purging or flow rate of nitrogen gas were recorded. Sodium chloride was added and dissolved gradually followed by stirring for not less than 10 minutes to ensure complete solubilization and clarity of solution visually. While additional excipients were added as below, the purging was stopped. 1 w/w hydrochloric acid (35 mL/Kg) was added and stirred well for approximately 10 minutes. […] The pH was adjusted to 3.0±0.1 using sufficient quantity of 1 w/w hydrochloric acid and stirred for around 1 h after pH adjustment to ensure complete dissolution of drug, stabilization of pH and until the appearance of the solution was a clear colourless solution. The pH was adjusted at 3.4±0.2 using sufficient quantity of 1 w/w Sodium hydroxide solution, and the volume was made up with dissolved oxygen maintained WFI stored at 20° C. to 25° C. […]

[4] = Terminal sterilization in different packaging material: Midazolam potency by HPLC based assay; type: physicochemical
Description: Method: Midazolam formulation samples (i) autoclaved and (ii) unautoclaved, were stored in different packaging materials, i.e. glass bottle, IC-H-AE-1, IC-S, IC-S′ and IC-PHC. Initial potency of Midazolam in such samples was tested using an HPLC based assay method.

[5] = Potency loss at lower concentration 0.2 and 0.5 mg/mL in different infusion bags (HPLC assay); type: physicochemical
Description: Method: Loss of potency of Midazolam was assessed using an HPLC based assay method for (i) autoclaved and (ii) unautoclaved formulations (0.2 mg/ml and 0.5 mg/ml) in glass bottle, IC-S infusion bag, IC-S′ infusion bag and IC-PHC infusion bag.

Structure (SMILES)	period over which diluted preparation was stable ([1]; 0.5 mg/ml, diluted with 5% dextrose solution and 0.9% sodium chloride, polyolefin bags, dark, room temperature (Hagan et al.))	period over which diluted solution remained stable ([1]; 1 mg/ml diluted with 5% dextrose, polyvinyl chloride and polyolefin bags, regardless of storage conditions (Karlage et al.))	period of stability ([1]; 1 mg/ml in 0.9% sodium chloride, polyvinyl chloride bags, fluorescent light, room temperature (McMullin et al.))	impact of fill volume on potency ([2]; IC-PHC infusion bags)	assay of autoclaved sample vs fill volume ([2]; IC-S infusion bags)	loss in assay or content upon autoclaving and long term storage ([3]; cyclo-olefin polymer or co-polymer as innermost layer of the infusion container)	loss of assay percentage immediately after autoclaving ([3]; infusion bags with inner layer of low density polyethylene, polypropylene, polyolefin copolymer or ethylene propylene copolymer)	Midazolam potency loss ([4]; IC-H-AE-1 infusion bags)	Midazolam potency, autoclaved vs un-autoclaved ([4]; IC-PHC infusion bags)	Midazolam potency after autoclaving ([4]; IC-S and IC-S′ infusion bags)	potency loss ([5]; IC-PHC infusion bags, 0.2 and 0.5 mg/mL)	potency loss ([5]; IC-PHC infusion containers, 0.2 mg/mL)	potency loss ([5]; IC-PHC infusion containers, 0.5 mg/mL)	potency loss ([5]; IC-S and IC-S′ infusion bags, 0.2 and 0.5 mg/mL)
Cc1ncc2n1-c1ccc(Cl)cc1C(c1ccccc1F)=NC2.Cl [Midazolam hydrochloride, 8-chloro-6-(2-fluorophenyl)-1-methyl-4H-imidazo[1,5-a][1,4] benzodiazepine hydrochloride]	30 days	about 27 days												
Cc1ncc2n1-c1ccc(Cl)cc1C(c1ccccc1F)=NC2 [Midazolam]			about 10 days	no impact of fill volume on potency	increasing trend with increasing fill volume	substantially no loss in assay	significant loss of assay percentage	Potency loss was also not observed	no significant change	found to decrease after autoclaving	no potency loss	no potency loss	no potency loss	significant potency loss
